Tested on: 233499-124-R-J3-PDC complex spheroid viability, % test/control
Assay: Anticancer human tumor 233499-124-R-J3-PDC patient-derived colon adenocarcinoma cell line growth inhibition
Conditions: for viability, T/C: stronger effect = lower value
Method in brief: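 Multicellular complex spheroids of tumor cells with human endothelial cells (HUVEC) and mesenchymal stem cells; the LSD1 inhibitor iadademstat was combined with standard-of-care or investigational agents. Top concentration at or near clinical Cmax, half-log dilutions; final DMSO ≤0.25%.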

[1] = curve of first compound, second compound 0.1 µM
[2] = curve of first compound, second compound 0.316 µM
[3] = curve of first compound, second compound 1 µM
[4] = curve of first compound, second compound 3.16 µM
[5] = curve of first compound, second compound 10 µM
[6] = second compound 0.1 µM, first compound 0.000316 µM
[7] = second compound 0.1 µM, first compound 0.001 µM
[8] = second compound 0.1 µM, first compound 0.00316 µM
[9] = second compound 0.1 µM, first compound 0.01 µM
[10] = second compound 0.1 µM, first compound 0.0316 µM
[11] = second compound 0.1 µM, first compound 0.1 µM
[12] = second compound 0.316 µM, first compound 0.000316 µM
[13] = second compound 0.316 µM, first compound 0.001 µM
[14] = second compound 0.316 µM, first compound 0.00316 µM
[15] = second compound 0.316 µM, first compound 0.01 µM
[16] = second compound 0.316 µM, first compound 0.0316 µM
[17] = second compound 0.316 µM, first compound 0.1 µM
[18] = second compound 1 µM, first compound 0.000316 µM
[19] = second compound 1 µM, first compound 0.001 µM
[20] = second compound 1 µM, first compound 0.00316 µM
[21] = second compound 1 µM, first compound 0.01 µM
[22] = second compound 1 µM, first compound 0.0316 µM
[23] = second compound 1 µM, first compound 0.1 µM
[24] = second compound 3.16 µM, first compound 0.000316 µM
[25] = second compound 3.16 µM, first compound 0.001 µM
[26] = second compound 3.16 µM, first compound 0.00316 µM
[27] = second compound 3.16 µM, first compound 0.01 µM
[28] = second compound 3.16 µM, first compound 0.0316 µM
[29] = second compound 3.16 µM, first compound 0.1 µM
[30] = second compound 10 µM, first compound 0.000316 µM
[31] = second compound 10 µM, first compound 0.001 µM
[32] = second compound 10 µM, first compound 0.00316 µM
[33] = second compound 10 µM, first compound 0.01 µM
[34] = second compound 10 µM, first compound 0.0316 µM
[35] = second compound 10 µM, first compound 0.1 µM
[36] = second compound 0.1 µM, first compound 0.00949 µM
[37] = second compound 0.1 µM, first compound 0.03 µM
[38] = second compound 0.1 µM, first compound 0.0949 µM
[39] = second compound 0.1 µM, first compound 0.3 µM
[40] = second compound 0.316 µM, first compound 0.00949 µM
[41] = second compound 0.316 µM, first compound 0.03 µM
[42] = second compound 0.316 µM, first compound 0.0949 µM
[43] = second compound 0.316 µM, first compound 0.3 µM
[44] = second compound 1 µM, first compound 0.00949 µM
[45] = second compound 1 µM, first compound 0.03 µM
[46] = second compound 1 µM, first compound 0.0949 µM
[47] = second compound 1 µM, first compound 0.3 µM
[48] = second compound 3.16 µM, first compound 0.00949 µM
[49] = second compound 3.16 µM, first compound 0.03 µM
[50] = second compound 3.16 µM, first compound 0.0949 µM
[51] = second compound 3.16 µM, first compound 0.3 µM
[52] = second compound 10 µM, first compound 0.00949 µM
[53] = second compound 10 µM, first compound 0.03 µM
[54] = second compound 10 µM, first compound 0.0949 µM
[55] = second compound 10 µM, first compound 0.3 µM
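Note: spheroids exposed to agents for one week before readout.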

Cn1ncnc1C1c2n[nH]c(=O)c3cc(F)cc(c23)NC1c1ccc(F)cc1 (configuration not stated) + NC1CCC(NC2CC2c2ccccc2)CC1
IC50 [1]: > 100 nM | IC50 [2]: > 100 nM | IC50 [3]: > 100 nM | IC50 [4]: > 100 nM | IC50 [5]: > 100 nM | viability, T/C [6]: 103% | viability, T/C [7]: 99.2% | viability, T/C [8]: 94.4% | viability, T/C [9]: 104% | viability, T/C [10]: 96.3% | viability, T/C [11]: 77.8% | viability, T/C [12]: 113% | viability, T/C [13]: 110% | viability, T/C [14]: 100% | viability, T/C [15]: 102% | viability, T/C [16]: 106% | viability, T/C [17]: 110% | viability, T/C [18]: 83.8% | viability, T/C [19]: 87.1% | viability, T/C [20]: 78.1% | viability, T/C [21]: 87.5% | viability, T/C [22]: 70.7% | viability, T/C [23]: 97% | viability, T/C [24]: 83% | viability, T/C [25]: 85.7% | viability, T/C [26]: 83.6% | viability, T/C [27]: 81.6% | viability, T/C [28]: 76.1% | viability, T/C [29]: 79.1% | viability, T/C [30]: 75.7% | viability, T/C [31]: 73.4% | viability, T/C [32]: 73.4% | viability, T/C [33]: 80.9% | viability, T/C [34]: 65.1% | viability, T/C [35]: 68.5%

COc1cc(Nc2ncc3c(n2)-c2ccc(Cl)cc2C(c2c(F)cccc2OC)=NC3)ccc1C(=O)O
viability, T/C (compound 0.00316 µM): 43.2% | viability, T/C (compound 0.01 µM): 61% | viability, T/C (compound 0.0316 µM): 55.2% | viability, T/C (compound 0.1 µM): 63.2% | viability, T/C (compound 0.316 µM): 63.9% | viability, T/C (compound 1 µM): 84.3% | IC50 (curve of compound): < 3.16 nM

Nc1ncn(C2CC(O)C(CO)O2)c(=O)n1 (configuration not stated) + NC1CCC(NC2CC2c2ccccc2)CC1
IC50 [1]: > 1000 nM | IC50 [2]: > 1000 nM | IC50 [3]: > 1000 nM | IC50 [4]: > 1000 nM | IC50 [5]: > 1000 nM | viability, T/C [8]: 77.1% | viability, T/C [9]: 83.9% | viability, T/C [10]: 83.8% | viability, T/C [11]: 69% | viability, T/C (second compound 0.1 µM, first compound 0.316 µM): 110% | viability, T/C (second compound 0.1 µM, first compound 1 µM): 111% | viability, T/C [14]: 92.6% | viability, T/C [15]: 96.8% | viability, T/C [16]: 87.2% | viability, T/C [17]: 86.8% | viability, T/C (second compound 0.316 µM, first compound 0.316 µM): 98.8% | viability, T/C (second compound 0.316 µM, first compound 1 µM): 77.6% | viability, T/C [20]: 89.3% | viability, T/C [21]: 75.2% | viability, T/C [22]: 74.8% | viability, T/C [23]: 72.5% | viability, T/C (second compound 1 µM, first compound 0.316 µM): 85.1% | viability, T/C (second compound 1 µM, first compound 1 µM): 94.8% | viability, T/C [26]: 82.9% | viability, T/C [27]: 72.2% | viability, T/C [28]: 73.6% | viability, T/C [29]: 82.6% | viability, T/C (second compound 3.16 µM, first compound 0.316 µM): 55.8% | viability, T/C (second compound 3.16 µM, first compound 1 µM): 101% | viability, T/C [32]: 74.2% | viability, T/C [33]: 71.2% | viability, T/C [34]: 68.7% | viability, T/C [35]: 65.8% | viability, T/C (second compound 10 µM, first compound 0.316 µM): 73.1% | viability, T/C (second compound 10 µM, first compound 1 µM): 82.1%

Nc1ncn(C2CC(O)C(CO)S2)c(=O)n1 (configuration not stated) + NC1CCC(NC2CC2c2ccccc2)CC1
IC50 [1]: 123 nM | IC50 [2]: 76.1 nM | IC50 [3]: 56.9 nM | IC50 [4]: 73.9 nM | IC50 [5]: 63.2 nM | viability, T/C (second compound 0.1 µM, first compound 0.000949 µM): 110% | viability, T/C (second compound 0.1 µM, first compound 0.003 µM): 85.6% | viability, T/C [36]: 113% | viability, T/C [37]: 88.1% | viability, T/C [38]: 61.4% | viability, T/C [39]: 13.1% | viability, T/C (second compound 0.316 µM, first compound 0.000949 µM): 113% | viability, T/C (second compound 0.316 µM, first compound 0.003 µM): 107% | viability, T/C [40]: 117% | viability, T/C [41]: 93.9% | viability, T/C [42]: 39.7% | viability, T/C [43]: 11.6% | viability, T/C (second compound 1 µM, first compound 0.000949 µM): 94.3% | viability, T/C (second compound 1 µM, first compound 0.003 µM): 88.6% | viability, T/C [44]: 91.2% | viability, T/C [45]: 76.8% | viability, T/C [46]: 28.6% | viability, T/C [47]: 27.4% | viability, T/C (second compound 3.16 µM, first compound 0.000949 µM): 97.4% | viability, T/C (second compound 3.16 µM, first compound 0.003 µM): 99.9% | viability, T/C [48]: 92% | viability, T/C [49]: 89% | viability, T/C [50]: 39.2% | viability, T/C [51]: 24.9% | viability, T/C (second compound 10 µM, first compound 0.000949 µM): 86.6% | viability, T/C (second compound 10 µM, first compound 0.003 µM): 82.4% | viability, T/C [52]: 86.8% | viability, T/C [53]: 82.8% | viability, T/C [54]: 32.1% | viability, T/C [55]: 23.6%

CC(C)CC(NC(=O)CNC(=O)c1cc(Cl)ccc1Cl)B1OC(=O)CC(CC(=O)O)(C(=O)O)O1 (configuration not stated) + NC1CC1c1ccc(-c2cccc(O)c2)cc1
IC50 [1]: 4.93 nM | IC50 [2]: 5.3 nM | IC50 [3]: 4.23 nM | IC50 [4]: 4.65 nM | IC50 [5]: 3.64 nM | viability, T/C [6]: 114% | viability, T/C [7]: 105% | viability, T/C [8]: 80.2% | viability, T/C [9]: 1.61% | viability, T/C [10]: 0.06% | viability, T/C [11]: 0.15% | viability, T/C [12]: 113% | viability, T/C [13]: 109% | viability, T/C [14]: 88.4% | viability, T/C [15]: 2.74% | viability, T/C [16]: 0.07% | viability, T/C [17]: 0.16% | viability, T/C [18]: 104% | viability, T/C [19]: 95.1% | viability, T/C [20]: 66.3% | viability, T/C [21]: 1.28% | viability, T/C [22]: 0.13% | viability, T/C [23]: 0.13% | viability, T/C [24]: 89.6% | viability, T/C [25]: 88.1% | viability, T/C [26]: 73.8% | viability, T/C [27]: 2.88% | viability, T/C [28]: 0.06% | viability, T/C [29]: 0.12% | viability, T/C [30]: 70.4% | viability, T/C [31]: 88.1% | viability, T/C [32]: 56.9% | viability, T/C [33]: 0.89% | viability, T/C [34]: 0.15% | viability, T/C [35]: 0.18%

O=C(C=Cc1cccc(S(=O)(=O)Nc2ccccc2)c1)NO + NC1CC1c1ccc(-c2cccc(O)c2)cc1
IC50 [1]: > 3000 nM | IC50 [2]: > 3000 nM | IC50 [3]: > 3000 nM | IC50 [4]: 908 nM | IC50 [5]: 759 nM | viability, T/C [36]: 108% | viability, T/C [37]: 134% | viability, T/C [38]: 118% | viability, T/C [39]: 113% | viability, T/C (second compound 0.1 µM, first compound 0.949 µM): 14.4% | viability, T/C (second compound 0.1 µM, first compound 3 µM): 89.1% | viability, T/C [40]: 126% | viability, T/C [41]: 112% | viability, T/C [42]: 124% | viability, T/C [43]: 115% | viability, T/C (second compound 0.316 µM, first compound 0.949 µM): 10.3% | viability, T/C (second compound 0.316 µM, first compound 3 µM): 97% | viability, T/C [44]: 95.2% | viability, T/C [45]: 109% | viability, T/C [46]: 113% | viability, T/C [47]: 113% | viability, T/C (second compound 1 µM, first compound 0.949 µM): 9.43% | viability, T/C (second compound 1 µM, first compound 3 µM): 91.8% | viability, T/C [48]: 86% | viability, T/C [49]: 104% | viability, T/C [50]: 93.8% | viability, T/C [51]: 108% | viability, T/C (second compound 3.16 µM, first compound 0.949 µM): 7.54% | viability, T/C (second compound 3.16 µM, first compound 3 µM): 88.7% | viability, T/C [52]: 86% | viability, T/C [53]: 91.9% | viability, T/C [54]: 90.9% | viability, T/C [55]: 109% | viability, T/C (second compound 10 µM, first compound 0.949 µM): 5% | viability, T/C (second compound 10 µM, first compound 3 µM): 73.7%
